Results reported in patent US20140328940A1, “MODULATION OF AXON DEGENERATION” (Genentech, Inc., priority 2009, published 2014).
“Also recorded” adds a separate entry of the source.

Assays:
[1] = tested on: DRG neurons (axon vs. cell body compartment); assay: Campenot chamber local axon degeneration (anti-NGF in axon compartment); format: cell-based, mouse
Procedure: Teflon dividers (Tyler Research) were cleaned by washing in water and wiping them clean of any residual grease. Dividers were then soaked in Nochromix (Godax Laboratories)/sulfuric acid overnight, rinsed five times in distilled and autoclaved water (SQ water), boiled for 30 minutes, and then air-dried before use
Mouse laminin (5 μg/ml in sterile filtered water; Invitrogen) was added to PDL coated 35 mm dishes (BD Biosciences) and they were incubated for 1 hour at 37° C., followed by two rinses in SQ water. The dishes were vacuum-dried and then air-dried in a laminar flow hood for 15 minutes. Prepared dishes were then scored with a pin rake (Tyler Research). […] High vacuum grease (VWR) was added to each Teflon divider under a dissection scope. The laminin coated PDL dishes were inverted and dropped onto the Teflon divider, with additional pressure added by use of a toothpick in the non-track-containing regions. Dishes were incubated for 1 hour at 37° C. Five hundred microliters of NBM+MC (50 ng/ml NGF) solution was added to each of the side compartments, and a grease barrier was added in front of the center cell slot.
Free E13.5 spinal cords were dissected from mouse embryos and placed into NBM+MC (25 ng/ml NGF) solution. DRGs were detached from the spinal cord with a tungsten needle. An NBM+MC-lubricated P200 pipette was used to move DRGs into a 1.5 ml tube. DRGs were pelleted with a tabletop centrifuge for 30 seconds. The supernate was discarded and 0.05% Trypsin/EDTA (cold) was added. The pellet was resolubilized with a pipette and incubated at 37° C. for 15 minutes with constant agitation (650 RPM). The sample was again centrifuged and the supernate discarded. The pellet was resuspended in warm NBM+MC (50 ng/ml NGF) solution and triturated with a flamed glass pipette 20 times, followed by trituration with a fire-bored glass pipette another 20 times. The samples were again centrifuged and the resulting pellets were resuspended in 0.5 ml NBM+MC (50 ng/ml NGF) solution. The cells were diluted to a final concentration of 2.5×10^6 cells/ml. The cell suspensions were loaded into a 1 ml syringe with a 22 gauge needle. The center slot of the Campenot divider was filled using the syringe (to a volume of at least 50 μl). The Campenot chamber was incubated overnight at 37° C. 2.5 ml NGF+MC (50 ng/ml NGF) solution was added to the center compartment and the grease gate was removed. The outer medium (cell body compartment) was replaced after three days with 2.5 ml NBM+MC medium (with 25 ng/ml NGF). After five days in culture, one distal compartment was washed three times with warmed NBM+MC (no NGF) solution. After the third wash, 500 μl NBM+MC (no NGF) solution was added to the axon compartment in combination with either 0.5% DMSO or an inhibitor. The cell body compartment was replaced with 2.5 ml NBM+MC medium (with 25 ng/ml NGF) containing either 0.5% DMSO or inhibitor.
After 28 hours of anti-NGF antibody treatment, 8% PFA/30% sucrose solution (see above) was added directly to the culture medium at a 1:1 dilution and incubated for 30 minutes. The Teflon divider was removed after the first 15 minutes of addition. The system was washed once with 2.5 ml PBS prior to immunostaining. Neurons were blocked in 5% BSA/0.2% triton in PBS for 30 minutes. The primary antibody Tuj1 (Covance) was added to a final dilution of 1:1000 in PBS containing 2% BSA and incubated overnight at 4° C. The dish was washed once with PBS. […] The dish was washed twice with PBS, and a 22×22 mm coverslip (VWR) was added with 350 μl of fluoromount G (Electron Microscopy Sciences). The neurons were visualized by use of a fluorescence microscope.
As described above, E13.5 DRGs were isolated and grown for 5 days in a Campenot chamber.

[2] = tested on: cerebellar granule neurons (CGNs); assay: serum deprivation/KCl reduction degeneration of cerebellar granule neurons; format: cell-based, mouse; conditions: 5 μM; 5 mM KCl, 24 hours
p38 MAPK = conditions: LPS-induced TNF-alpha production, human monocytes; published source; read-out: Cellular IC50; cited from earlier work
DRGs = assay: anti-NGF antibody (NGF withdrawal) screen for inhibitors of axon degeneration in DRG explants; format: cell-based, mouse; conditions: inhibitor 100 μM or 10 μM added 1 hour before 25 μg/ml anti-NGF; 20 hours; actin stain
Procedure: The anti-NGF antibody model described above in Example 1 was used in a screen for inhibitors of neuron or axon degeneration. A library of more than 400 small molecules (Tocris Bioscience) was tested to see which, if any, modulate degeneration observed in the presence of anti-NGF antibodies.
Mouse E13.5 embryos were dissected and placed into L15 medium (Invitrogen). The spinal cord was dissected out from the embryos with DRGs attached. The spinal cords with DRGs attached were placed into L15 medium+5% goat serum (Gibco) on ice. The DRGs were removed using a tungsten needle and the remaining spinal cord was disposed of. Eight well slides were filled with N3-F12 solution (23 ml Ham's F12, 1 ml N3 supplement, and 1 ml 1 M glucose) to which was added 25 ng/ml NGF (Roche). (N3 supplement was made by dilution of N3 100× concentrate, which was made by mixing the following ingredients, in the following order: 5.0 ml Hank's buffered saline solution (HBSS; Ca, Mg free; Invitrogen), 1.0 ml bovine serum albumin (10 mg/ml in HBSS=150 μm), 2.0 ml Transferrin (T1147-1G, human, 100 mg/ml in HBSS=1.1 mM), 1.0 ml sodium selenite (S9133-1MG, 0.01 mg/ml in HBSS 58 μM), 0.4 ml putrescine dihydrochloride (P5780-5G, 80 mg/ml in HBSS=500 mM), 0.2 ml progesterone (P8783-5G, 0.125 mg/ml in absolute ethanol=400 μM), 0.02 ml corticosterone (C2505-500MG, 2 mg/ml in absolute ethanol=5.8 mM), 0.1 ml triiodothyonine, sodium salt (T6397-100MG, 0.2 mg/ml in 0.01 N NaOH=300 μM), 0.4 ml insulin (16634-250MG, bovine pancreas, 241 U/mg, 25 mg/ml in 20 mM HCl=4.4 mM), for a total volume of 10.02 ml (can be stored at −20° C.). An N3 supplement stock was made by combining the following: 10 ml Pen/Strep (100×, Gibco), 10 ml glutamine (200 mM, Gibco), 10 ml MEM vitamins (100×, Gibco), 10 ml N3 concentrate (100×, see above), for a total volume of 40 ml. The mixture was filter sterilized using a 0.22 μm filter, and 1-2 ml aliquots were stored at −20° C.).
The DRGs were sectioned into halves and placed in the center of each well of an 8-chamber slide (BD Biocoat PDL/Laminin coated glass, Becton Dickinson). The DRGs were permitted to attach to the slide at room temperature for 5-10 minutes, followed by an overnight incubation at 37° C. Inhibitors of choice were added at a concentration of 100 μM (top row) or 10 μM (bottom row) 1 hour before adding anti NGF antibodies. The anti-NGF antibodies were added to the right half of the slide (4 wells) at a concentration of 25 μg/ml. After incubation for 20 hours at 37° C., the slides were fixed with 30% sucrose/8% paraformaldehyde (PFA) by adding 250 μl of the fix solution directly to the 250 μl of culture medium. (To make the 30% sucrose/8% PFA solution, the following ingredients were added to a 600 ml beaker including a stir bar: 250 ml 16% PFA (cat#15710-S, Electron Microscopy Sciences), 50 ml 10×PBS pH 7.4, and 150 g sucrose. The solution was mixed under low heat until dissolved, and then 6-8 drops of 1 M NaOH were added to bring the pH to 7.4. The volume was then brought to 500 ml with water in a graduated cylinder. The solution was mixed well, placed in aliquots, and frozen.) The s ides were fixed for 30 minutes, followed by washing once with PBS. All cells were labeled with an actin stain (Alexa-568 conjugated phalloidin; 1:40; Invitrogen), a membrane dye (DiO; 1:200; Invitrogen), and a DNA stain (Hoechst 33258; 1:10,000; Invitrogen) in 0.1% Triton and 1% goat serum for 2 hours at room temperature. […]

CaMKK = CaMKK activity after ionomycin stimulation, transfected HeLa cells; published source; read-out: Cellular IC50; cited from earlier work

| Structure (SMILES) | formation of varicosities in locally NGF-deprived axons ([1]; 30 μM SB415, 15 μM Act D in cell body compartment, 10 μM AG555, 30 μM SB239 in axon compartment) | Axon Compartment (protection of NGF-deprived axons) ([1]; inhibitor 5 μM in axon compartment) | Cell Body Compartment (protection of NGF-deprived axons) ([1]; inhibitor 5 μM in cell body compartment) | Axon Compartment (protection of NGF-deprived axons) ([1]; inhibitor 30 μM in axon compartment, anti-NGF on axons 28 hours, number in parentheses not explained) | Axon Compartment (protection of NGF-deprived axons) ([1]; inhibitor 30 μM in axon compartment, anti-NGF on axons 28 hours, number in parentheses not explained, listed as SB239) | Cell Body Compartment (protection of NGF-deprived axons) ([1]; inhibitor 30 μM in cell body compartment, anti-NGF on axons 28 hours, number in parentheses not explained) | Cell Body Compartment (protection of NGF-deprived axons) ([1]; inhibitor 30 μM in cell body compartment, anti-NGF on axons 28 hours, number in parentheses not explained, listed as SB239) | protection of cerebellar granule neurons from serum deprivation/KCl reduction [2] | IC50 (p38 MAPK) [nM] | Comments (observations on compounds found to protect against neurodegeneration) (DRGs) | Axon Compartment (protection of NGF-deprived axons) ([1]; inhibitor 15 μM in axon compartment) | Cell Body Compartment (protection of NGF-deprived axons) ([1]; inhibitor 15 μM in cell body compartment) | IC50 (CaMKK) [nM] |
| --- | --- | --- | --- | --- | --- | --- | --- | --- | --- | --- | --- | --- | --- |
| COc1nccc(-c2c(-c3ccc(F)cc3)ncn2C2CCC(O)CC2)n1 (centres unmarked) [SB239063] | fewer varicosities | Yes (1) | No (1) | Yes (3) | did not degenerate; also recorded: protected from local degeneration | No (3) | failed to prevent degeneration | protect | 350 |  |  |  |  |
| O=C(O)c1ccc2c3c1cccc3c(=O)n1c3ccccc3nc21 [STO-609] |  |  |  |  |  |  |  | protect |  | Partial | Yes (1) | No (1) | 3000 |
